For 15 compounds, IC50 results are on record in patent publication US20250034167A1, “HETEROCYCLIC COMPOUNDS AND METHODS OF USE” (AMGEN INC., priority 2021, published 2025).

In assay [1] the test system is Phosphorylation of ERK1/2 in AsPC-1 cells. The assay can be described thus: Phospho-ERK1/2 MSD Assay. In kind it is cell-based. The method, then:
Sixteen hours prior to compound treatment, AsPC-1 cells were seeded in 96-well cell culture plates at a density of 25,000 cells/well and incubated at 37° C., 5% CO2. A compound dose-response titration was diluted in growth media, added to appropriate wells of a cell culture plate, and then incubated at 37° C., 5% CO2 for 2 hours.

For assay [2], the target named is T1, His-tagged KRAS G12D protein (Homo sapiens, UniProt P01116, G12D).
T1 sequence (P01116 1-188 isoform P01116-2 G12D): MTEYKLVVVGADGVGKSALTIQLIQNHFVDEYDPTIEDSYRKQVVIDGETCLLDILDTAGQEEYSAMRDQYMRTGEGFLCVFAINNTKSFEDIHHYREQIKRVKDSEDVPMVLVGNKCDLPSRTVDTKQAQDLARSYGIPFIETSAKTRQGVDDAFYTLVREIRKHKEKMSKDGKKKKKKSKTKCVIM
Experimental: (§1) The plate was incubated for 30 minutes at room temperature. Biotinylated KRPep-2d substrate (Amgen) was diluted to nM in Assay Buffer and 2 μL was added to all wells and incubated for 1 hour at room temperature. Detection Reagent (0.4 nM LANCE Eu-W1024 Anti-6×His (Perkin Elmer AD0401), 5 nM streptavidin-d2 (Cisbio 610SADLA)) was prepared in Assay Buffer, then 4 µL was added to the plate and incubated for 1 hour at room temperature.
The target in assay [3] is T1, His-tagged KRAS G12D protein. The assay is described as follows: biochemical.
Experimental: as §1
Where [4] appears, read: Homo sapiens, ASPC1, 2 h, read-out: 2 h p-ERK (AsPC-1 cells), IC50, AsPC-1 cells, 2 h compound treatment.

Read-outs that look alike come from different tables or passages of the source.

As for `CCc1c(F)ccc2cc(O)cc(-c3ncc4c(N5CCCC(C#N)CC5)nc(OC[C@@]56CCCN5C[C@H](F)C6)nc4c3F)c12` (single isomer, unassigned) [Example 55], the concentration for half-maximal inhibition (IC50) is 259 nM in assay [1] (read-out: 2 h p-ERK (AsPC-1 cells), IC50, AsPC-1 cells, 2 h compound treatment) and 3 nM in assay [2].
Take `CCc1c(F)ccc2cc(O)cc(-c3ncc4c(N5C[C@H](N)CC(F)(F)C5)nc(OC[C@@]56CCCN5C[C@H](F)C6)nc4c3F)c12` [Example 140, 4-(4-((R)-5-Amino-3,3-difluoropiperidin-1-yl)-8-fluoro-2-(((2R,7aS)-2-fluorotetrahydro-1H-pyrrolizin-7a(5H)-yl)methoxy)pyrido[4,3-d]pyrimidin-7-yl)-5-ethyl-6-fluoronaphthalen-2-ol]: the half-inhibitory concentration (IC50) is 81 nM in assay [1] (setting [4]) and 3 nM in assay [3].
The like results for `CCc1c(F)ccc2cc(O)cc(-c3ncc4c(N5CCCC(O)CC5)nc(OC[C@@]56CCCN5C[C@H](F)C6)nc4c3F)c12` (stereo partly drawn) [Example 141, 1-(7-(8-Ethyl-7-fluoro-3-hydroxynaphthalen-1-yl)-8-fluoro-2-(((2R,7aS)-2-fluorotetrahydro-1H-pyrrolizin-7a(5H)-yl)methoxy)pyrido[4,3-d]pyrimidin-4-yl)azepan-4-ol] were, in that order, 198 nM and 4 nM.
Consider `CCc1c(F)ccc2cc(O)cc(-c3ncc4c(N5CCCC(N)CC5)nc(OC[C@@]56CCCN5C[C@H](F)C6)nc4c3F)c12` (stereo partly drawn) [Example 143, 4-(4-(4-Aminoazepan-1-yl)-8-fluoro-2-(((2R,7aS)-2-fluorotetrahydro-1H-pyrrolizin-7a(5H)-yl)methoxy)pyrido[4,3-d]pyrimidin-7-yl)-5-ethyl-6-fluoronaphthalen-2-ol], for which the figures for the IC50 in assay [1] (setting [4]) and in assay [3] were greater than 10000 nM and 62 nM, respectively.
With `CCc1c(F)ccc2cc(O)cc(-c3ncc4c(N5CC6CCC(C5)C(C#N)C6)nc(OC[C@@]56CCCN5C[C@H](F)C6)nc4c3F)c12` (stereo partly drawn) [Example 147, 3-(7-(8-Ethyl-7-fluoro-3-hydroxynaphthalen-1-yl)-8-fluoro-2-(((2R,7aS)-2-fluorotetrahydro-1H-pyrrolizin-7a(5H)-yl)methoxy)pyrido[4,3-d]pyrimidin-4-yl)-3-azabicyclo[3.2.2]nonane-6-carbonitrile], the concentration for half-maximal inhibition (IC50) in assay [1] (setting [4]) came out at 714 nM; in assay [3], 15 nM.
Take `CCc1c(F)ccc2cc(O)cc(-c3ncc4c(N5CCCC(F)(F)CC5)nc(OC[C@@]56CCCN5C[C@H](F)C6)nc4c3F)c12` [Example 149, 4-(4-(4,4-Difluoroazepan-1-yl)-8-fluoro-2-(((2R,7aS)-2-fluorotetrahydro-1H-pyrrolizin-7a(5H)-yl)methoxy)pyrido[4,3-d]pyrimidin-7-yl)-5-ethyl-6-fluoronaphthalen-2-ol]: the half-inhibitory concentration (IC50) in assay [1] (setting [4]) stood at 702 nM; in assay [3], 12 nM.
Take `CCc1c(F)ccc2cc(O)cc(-c3ncc4c(N5CCC(=O)C(F)(F)CC5)nc(OC[C@@]56CCCN5C[C@H](F)C6)nc4c3F)c12` [Example 150, 1-(7-(8-Ethyl-7-fluoro-3-hydroxy-naphthalen-1-yl)-8-fluoro-2-(((2R,7aS)-2-fluorotetrahydro-1H-pyrrolizin-7a(5H)-yl)methoxy)pyrido[4,3-d]pyrimidin-4-yl)-5,5-difluoroazepan-4-one]: the IC50 in assay [1] (setting [4]) was 1430 nM; in assay [3] it was 3 nM.
The matching figures for `CCc1c(F)ccc2cc(O)cc(-c3ncc4c(N5CCC(=O)C(F)(F)C5)nc(OC[C@@]56CCCN5C[C@H](F)C6)nc4c3F)c12` [Example 152, 1-(7-(8-Ethyl-7-fluoro-3-hydroxy-naphthalen-1-yl)-8-fluoro-2-(((2R,7aS)-2-fluorotetrahydro-1H-pyrrolizin-7a(5H)-yl)methoxy)pyrido[4,3-d]pyrimidin-4-yl)-3,3-difluoropiperidin-4-one]: 2670 nM and 4 nM.
The like results for `CCc1c(F)ccc2cc(O)cc(-c3ncc4c(N5CCCCC(S(N)(=O)=O)C5)nc(OC[C@@]56CCCN5C[C@H](F)C6)nc4c3F)c12` (stereo partly drawn) [Example 158, 1-(7-(8-Ethyl-7-fluoro-3-hydroxy-naphthalen-1-yl)-8-fluoro-2-(((2R,7aS)-2-fluorotetrahydro-1H-pyrrolizin-7a(5H)-yl)methoxy)pyrido[4,3-d]pyrimidin-4-yl)azepane-3-sulfonamide] were, in that order, 1420 nM and 2 nM.
The matching figures for `CCc1c(F)ccc2cc(O)cc(-c3ncc4c(N5CCCC(O)(C(N)=O)C5)nc(OC[C@@]56CCCN5C[C@H](F)C6)nc4c3F)c12` (stereo partly drawn) [Example 159, 1-(7-(8-Ethyl-7-fluoro-3-hydroxy-naphthalen-1-yl)-8-fluoro-2-(((2R,7aS)-2-fluorotetrahydro-1H-pyrrolizin-7a(5H)-yl)methoxy)pyrido[4,3-d]pyrimidin-4-yl)-3-hydroxypiperidine-3-carboxamide]: 3080 nM and 2 nM.
Consider `CCc1c(F)ccc2cc(O)cc(-c3ncc4c(N5CCC[C@@H](C(N)=O)C5)nc(OC[C@@]56CCCN5C[C@H](F)C6)nc4c3F)c12` [Example 162, (R)-1-(7-(8-Ethyl-7-fluoro-3-hydroxynaphthalen-1-yl)-8-fluoro-2-(((2R,7aS)-2-fluorotetrahydro-1H-pyrrolizin-7a(5H)-yl)methoxy)pyrido[4,3-d]pyrimidin-4-yl)piperidine-3-carboxamide], for which the IC50 in assay [1] (setting [4]) is 1610 nM; in assay [3] it was 2 nM.
The like results for `Oc1cc(-c2ncc3c(N4CCCCCC4)nc(OC[C@@]45CCCN4C[C@H](F)C5)nc3c2F)c2c(F)c(F)ccc2c1` [Example 166, 4-(4-(Azepan-1-yl)-8-fluoro-2-(((2R,7aS)-2-fluorotetrahydro-1H-pyrrolizin-7a(5H)-yl)methoxy)pyrido[4,3-d]pyrimidin-7-yl)-5,6-difluoronaphthalen-2-ol] were, in that order, 94 nM and 3 nM.
The matching figures for `C[C@@]1(O)CCCN(c2nc(OC[C@@]34CCCN3C[C@H](F)C4)nc3c(F)c(-c4cc(O)cc5cccc(C6CC6)c45)ncc23)C1` [Example 167, (R)-1-(7-(8-Cyclopropyl-3-hydroxynaphthalen-1-yl)-8-fluoro-2-(((2R,7aS)-2-fluorotetrahydro-1H-pyrrolizin-7a(5H)-yl)methoxy)pyrido[4,3-d]pyrimidin-4-yl)-3-methylpiperidin-3-ol]: 12 nM and 2 nM.
On to `C=CCC1CCCc2cc(O)cc(-c3ncc4c(N5CCC[C@@](C)(O)C5)nc(OC[C@@]56CCCN5C[C@H](F)C6)nc4c3F)c21` (stereo partly drawn) [Example 175, (3R)-1-(7-(8-Allyl-3-hydroxy-5,6,7,8-tetrahydro-naphthalen-1-yl)-8-fluoro-2-(((2R,7aS)-2-fluorotetrahydro-1H-pyrrolizin-7a(5H)-yl)methoxy)pyrido[4,3-d]pyrimidin-4-yl)-3-methyl-piperidin-3-ol], for which the half-maximal inhibitory concentration (IC50) in assay [1] (setting [4]) was 10 nM; in assay [3] it was 8 nM.
The like results for `CCc1c(F)ccc2cc(O)cc(-c3ncc4c(N5CCC[C@@](C)(O)C5)nc(OCC56CCCN5CCC6)nc4c3F)c12` [Example 179, (R)-1-(7-(8-Ethyl-7-fluoro-3-hydroxynaphthalen-1-yl)-8-fluoro-2-((tetrahydro-1H-pyrrolizin-7a(5H)-yl)methoxy)pyrido[4,3-d]pyrimidin-4-yl)-3-methylpiperidin-3-ol] were, in that order, 18 nM and 5 nM.

What is called IC50 is the concentration at which inhibition is half-maximal.
